Data from patent publication US11344493B2, “Cleavable surfactant” (FIRMENICH SA, priority 2017, dated 2022).
Blank lines part the entries; values can stand above or below the compound they belong to.

Experiments:
[1] = Equilibration of imines in deuterium oxide (1H NMR); format: physicochemical; settings: conditions of Table 3
Description: (§1) The compounds according to formula (I) at different concentrations (c=10 . . . 500 mM) were individually dissolved in deuterium oxide (0.7 mL) at room temperature. The pD was measured and the hydrolysis of the imine was followed by ^1H NMR until an equilibrium was reached. The imine concentration at equilibrium was determined. Reactions with constant pD were either performed at unmodified pD (basic) or in a 4-(2-hydroxyethyl)-1-piperazineethanesulfonic acid (HEPES) buffer (slightly acidic). The data summarized in Table 3 were obtained from the measurements.

[2] = Surface tension of aqueous solutions (Kruss DSA 10 MK2 Drop Shape Analysis); format: physicochemical; settings: for surface tension / surface activity: aqueous solution 1% wt, FIG. 2; for critical concentration (CMC) and self-aggregation in micelles: surface tension as function of concentration, FIG. 3
Description: The surface activity of aqueous solutions of typical well known surfactants at concentration of 1% wt was measured by Kruss DSA 10 MK2 Drop Shape Analysis System. In parallel, the HLB value of the surfactant molecules was calculated by using ECL model. FIG. 2 represented the correlation between the surface tension and the calculated HLB values (black circles). The curve reached a saturation value at HLB 18, which was the limit of the HLB range for the compound of formula (I). All molecules having HLB higher than 18 are not part of the present invention due to a strong water solubility and an insufficient surface activity.
The surface tension of compounds of formula (I): Imine F, Imine D, Imine E, Imine B and of comparative Imine C1, was measured as well and the data were added to FIG. 2 (grey squares). […] The HLB calculated for this molecule was higher than 18 and therefore out of the limits fixed in the present invention.
As a comparative example, the compound Imine C7 reported in Polymer 2014, vol. 55, pages 1443-1451 was synthetized (see Example 3 g)) and surface tension of the aqueous solution of 1% wt of this molecule was measured. The data was included in FIG. 2 (black triangle).
The surface tension as function of the concentration of Imine compounds F and C1 was measured and presented on FIG. 3.

[3] = Hydrolysis of imines in model formulation with Texapon NSO IS; format: physicochemical; settings: Texapon NSO IS 4 wt % in deuterium oxide, c0 10 mM
Description: To investigate the hydrolysis of the imines according to formula (I), a simple model formulation in deuterium oxide was prepared. Freeze-dried Texapon® NSO IS (trademark from BASF and commercially available from BASF) (4 wt %) was dissolved in deuterium oxide (95 wt %) at room temperature. The imine according to formula (I) (1 wt %) was added to the formulation at the beginning of the experiment (t=0), the pH was measured and the NMR measurements were started.

[4] = Kinetics of hydrolysis of imines in deuterium oxide (1H NMR); format: physicochemical; settings: for order of hydrolysis kinetics: t1/2 versus initial concentration
Description: as §1

[5] = Solubilizing capacity of imines for a model perfume in water; format: physicochemical; settings: for Fragrance/Surfactant Weight Ratio: transparent solution of model perfume in water; for Imine: minimal value of surfactant necessary to obtain a transparent solution: water 9.0 g and model perfume 0.3 g
Description: Water (9.0 g) and the model perfume composition of Table 8 (0.3 g) are mixed under gentle agitation. The resulting solution is turbid. Imines of formula (I) are then added until a transparent solution was obtained. The ratio fragrance to surfactant indicates the solubilizing capacity of the imines wherein higher ratio indicates higher solubilizing capacity of the imine.

[6] = Hydrolysis of imines in deuterium oxide in the presence of co-surfactants; format: physicochemical; settings: c0 10 mM
Description: The influence of the presence of (co-)surfactants on the hydrolysis of imines according to formula (I) was investigated by ^1H NMR spectroscopy in deuterium oxide (0.7 mL) as described in Example 5 with an initial imine concentration of 10 mM and 4 wt % of an additional surfactant. The following surfactants were tested: sodium dodecyl sulfate (SDS), sodium laureth sulphate (Texapon® NSO IS; trademark from BASF and commercially available from BASF), hexadecyl-trimethyl-ammonium bromide (cetrimonium bromide), 2,5,8,11,14,17,20,23,26,29,32,35,38,41,44,47,50,53,56,59,62,65,68,71,74-pentacosaoxahexaheptacontan-76-yl stearate (PEG25Monostearate), (polyethylene glycol)9,10 4-(1,1,3,3-tetramethylbutyl)-phenyl ether (Triton® X-100; trademark from Dow Chemical and commercially available from Sigma Aldrich), polyoxyethylene 20 sorbitan monooleate (Tween® 80; trademark from Uniquema, ICI Americas Inc. and commercially available from Sigma Aldrich).

[7] = format: physicochemical; settings: pH 2.6
From the text: Compounds according to formula (I) were included into citral containing microemulsions formed by mixing a buffer solution at pH=2.6 (48% citric acid and 3.2% NaOH in water), Tween® 80 (trademark from Uniquema, ICI Americas Inc. and commercially available from Sigma Aldrich) and citral in the quantities listed in Table 10. […] The two solutions contained equimolar amounts of citral. At different time intervals the different formulations (0.305 g) were extracted by adding an aqueous solution of NaCl (15%, 2.745 g) and iso-octane (3.050 g). The mixtures were stirred (at 500 rpm for 10 min) and left equilibrating (5 min) to separate into two well distinguished phases. The phases were carefully separated and the organic phase (20 μL) analysed by GC/MS. GC/MS analyses were carried out on an Agilent 6890N Network GC system and an Agilent 5973 Network MS. […] Citral was analyzed by single ion monitoring and the extracted citral concentrations were determined by external standard calibration. […] The citral concentration measured in the extraction experiments as a function of time (FIG. 1), were fitted with Equation 2. The degradation rates, as well as the initial maximum citral concentrations were determined.

[8] = Hydrolysis of imines in model formulation with Hostapur SAS 60 and Genapol LA 70; format: physicochemical; settings: Hostapur SAS 60 7 wt % and Genapol LA 70 17 wt % in deuterium oxide, c0 10 mM, pD 10.4
Description: A second aqueous surfactant solution was prepared by dissolving freeze-dried sodium C14-17 sec-alkyl sulphonate (Hostapur® SAS 60; trademark from Clariant GmbH and commercially available from Clariant GmbH; 7 wt %) and freeze-dried ethoxylated C12-16 alcohols (Genapol® LA 70; trademark from Clariant GmbH and commercially available from Clariant GmbH; 17 wt %) in deuterium oxide (75 wt %) at room temperature. Then, sodium deuteroxide 40% in deuterium oxide was added until reaching a pH of 10. The imine according to formula (I) (1 wt %) was added to the formulation at the beginning of the experiment (t=0), the pH was measured and the NMR measurements were started.

Compound: CCCCCCC(C=NC(C)COC(C)COC(C)COC(C)COC(C)COC(C)COC(C)COC(C)COC(C)COC(C)COCCOCCOCCOCCOCCOCCOCCOCCOCCOCCOCCOCCOCCOCCOCCOCCOCCOCCOCCOCCOCCOCCOCCOCCOCCOCCOCCOCCOCCOCCOCCOC)=Cc1ccccc1 (mixture of isomers) [Imine C]
half-time of hydrolysis (t1/2) ([3]; pD 10.5): 17.5 h | order of hydrolysis kinetics [4]: pseudo-zero order kinetics | Fragrance/Surfactant Weight Ratio [5]: 4.0 | Imine: minimal value of surfactant necessary to obtain a transparent solution [5]: 11.43%

Compound: COCCOCCOCCOCCOCCOCCOCCOCCOCCOCCOCCOCCOCCOCCOCCOCCOCCOCCOCCOCC(C)OCC(C)OCC(C)N=CC=C(C)CCC=C(C)C (mixture of isomers) [Imine D]
concentration at equilibrium (ceq) ([6]; co-surfactant Certrimmonium bromide 4 wt %, pD 10.5): 4750 µM | concentration at equilibrium (ceq) ([6]; co-surfactant PEG25Monostearate 4 wt %, pD 10.5): 2790 µM | concentration at equilibrium (ceq) ([6]; co-surfactant SDS 4 wt %, pD 10.5): 8930 µM | concentration at equilibrium (ceq) ([6]; co-surfactant Texapon NSO IS 4 wt %, pD 10.5): 5960 µM | concentration at equilibrium (ceq) ([6]; co-surfactant none, pD 10.5): 2950 µM | surface tension / surface activity [2]: strong surface activity | Fragrance/Surfactant Weight Ratio [5]: 5.2 | Imine: minimal value of surfactant necessary to obtain a transparent solution [5]: 14.36%

Compound: COCCOCCOCCOCCOCCOCCOCCOCCOCCOCCOCCOCCOCCOCCOCCOCCOCCOCCOCCOCCOCCOCCOCCOCCOCCOCCOCCOCCOCCOCCOCCOCC(C)OCC(C)OCC(C)OCC(C)OCC(C)OCC(C)OCC(C)OCC(C)OCC(C)OCC(C)N=CC=C(C)CCC=C(C)C (mixture of isomers) [Imine E]
concentration at equilibrium (ceq) ([6]; co-surfactant PEG25Monostearate 4 wt %, pD 10.4): 7500 µM | concentration at equilibrium (ceq) ([6]; co-surfactant PEG25Monostearate 4 wt %, phosphate buffer (pD 4.4)): 6400 µM | concentration at equilibrium (ceq) ([6]; co-surfactant none, pD 10.4): 2800 µM | decrease of the citral degradation rate [7]: 1.53 times | surface tension / surface activity [2]: strong surface activity | Fragrance/Surfactant Weight Ratio [5]: 9.3 | Imine: minimal value of surfactant necessary to obtain a transparent solution [5]: 23.14%

Compound: CCCCCCCC=CCCC=NC(C)COC(C)COC(C)COCCOCCOCCOCCOCCOCCOCCOCCOCCOCCOCCOCCOCCOCCOCCOCCOCCOCCOCCOC (mixture of isomers) [Imine F]
surface tension / surface activity [2]: strong surface activity | critical concentration (CMC) and self-aggregation in micelles [2]: existence of critical concentration (CMC) | Fragrance/Surfactant Weight Ratio [5]: 2.7 | Imine: minimal value of surfactant necessary to obtain a transparent solution [5]: 7.92%

Compound: CCCCCCCC=CCCC=NC(C)COC(C)COC(C)COC(C)COC(C)COC(C)COC(C)COC(C)COC(C)COC(C)COCCOCCOCCOCCOCCOCCOCCOCCOCCOCCOCCOCCOCCOCCOCCOCCOCCOCCOCCOCCOCCOCCOCCOCCOCCOCCOCCOCCOCCOCCOCCOC (mixture of isomers) [Imine G]
Fragrance/Surfactant Weight Ratio [5]: 5.3 | Imine: minimal value of surfactant necessary to obtain a transparent solution [5]: 14.68%

Compound: CCCCCCC(C=NCCc1ccc(OCCOCCOCCOCCOCCOCCOCCOCCOCCOCCOCCOC)cc1)=Cc1ccccc1 [Imine A]
half-time of hydrolysis t1/2 (est.) [8]: 42.5 h | half-time of hydrolysis (t1/2) ([3]; pD 10.6): 9.2 h | half-time of hydrolysis (t1/2) ([4]; c0 10 mM, pD 10.1): 59.5 h | initial rate of hydrolysis (v0) ([4]; c0 10 mM, pD 10.1): 1.3 10^−3 mM/min

Further lines, results first:

stability of the imine at equilibrium [1]: mostly cleaved | surface tension / surface activity [2]: high surface tension value | critical concentration (CMC) and self-aggregation in micelles [2]: absence of CMC and self-aggregation
Compound: COCCOCCOCCOCCOCCOCCOCCOCCOCCOCCOCCOCCOCCOCCOCCOCCOCCOCCOCCOCC(C)OCC(C)OCC(C)N=Cc1ccc(O)c(OC)c1 (mixture of isomers) [Imine C1, reference compound]

half-time of hydrolysis (t1/2) ([3]; pD 10.5): 4.3 h | initial rate of hydrolysis (v0) ([3]; pD 10.5): 35.4 10^−3 mM/min | half-time of hydrolysis ([4]; at all concentrations): around 5 h | half-time of hydrolysis (t1/2) ([4]; c0 10 mM, pD 10.5): 4.56 h | initial rate of hydrolysis (v0) ([4]; c0 10 mM, pD 10.5): 14.8 10^−3 mM/min | half-time of hydrolysis (t1/2) ([4]; c0 25 mM, pD 10.5): 8.4 h | initial rate of hydrolysis (v0) ([4]; c0 25 mM, pD 10.5): 23.7 10^−3 mM/min | half-time of hydrolysis (t1/2) ([4]; c0 100 mM, pD 10.4): 5.28 h | initial rate of hydrolysis (v0) ([4]; c0 100 mM, pD 10.4): 856 10^−3 mM/min | order of hydrolysis kinetics [4]: pseudo-first order kinetics
Compound: CCCCCCC(C=NCCOCCOCCOCCOCCOCCOCCOCCOCCOCCOCCOC)=Cc1ccccc1 [Imine C5]
